Assay results reported in patent US9487506B2, “Mineralocorticoid receptor antagonists” (Merck Sharp & Dohme Corp., priority 2011, dated 2016).

target: T1, full-length human Mineralocorticoid Receptor (MR) (Homo sapiens, UniProt P08235); assay: human MR NH Pro assay (PathHunter Protein:Protein interaction assay), MR antagonist activity; type: cell-based; conditions: PathHunter CHO-K1 cells overexpressing human MR; aldosterone 0.3 nM to about 1 nM; 6 hours at 37° C.; luminescence; read-out: IP (rating); IP is the inflection point for a given dose-response titration curve
T1 construct: host or cells: PathHunter CHO-K1 cells
T1 sequence (P08235 1-984): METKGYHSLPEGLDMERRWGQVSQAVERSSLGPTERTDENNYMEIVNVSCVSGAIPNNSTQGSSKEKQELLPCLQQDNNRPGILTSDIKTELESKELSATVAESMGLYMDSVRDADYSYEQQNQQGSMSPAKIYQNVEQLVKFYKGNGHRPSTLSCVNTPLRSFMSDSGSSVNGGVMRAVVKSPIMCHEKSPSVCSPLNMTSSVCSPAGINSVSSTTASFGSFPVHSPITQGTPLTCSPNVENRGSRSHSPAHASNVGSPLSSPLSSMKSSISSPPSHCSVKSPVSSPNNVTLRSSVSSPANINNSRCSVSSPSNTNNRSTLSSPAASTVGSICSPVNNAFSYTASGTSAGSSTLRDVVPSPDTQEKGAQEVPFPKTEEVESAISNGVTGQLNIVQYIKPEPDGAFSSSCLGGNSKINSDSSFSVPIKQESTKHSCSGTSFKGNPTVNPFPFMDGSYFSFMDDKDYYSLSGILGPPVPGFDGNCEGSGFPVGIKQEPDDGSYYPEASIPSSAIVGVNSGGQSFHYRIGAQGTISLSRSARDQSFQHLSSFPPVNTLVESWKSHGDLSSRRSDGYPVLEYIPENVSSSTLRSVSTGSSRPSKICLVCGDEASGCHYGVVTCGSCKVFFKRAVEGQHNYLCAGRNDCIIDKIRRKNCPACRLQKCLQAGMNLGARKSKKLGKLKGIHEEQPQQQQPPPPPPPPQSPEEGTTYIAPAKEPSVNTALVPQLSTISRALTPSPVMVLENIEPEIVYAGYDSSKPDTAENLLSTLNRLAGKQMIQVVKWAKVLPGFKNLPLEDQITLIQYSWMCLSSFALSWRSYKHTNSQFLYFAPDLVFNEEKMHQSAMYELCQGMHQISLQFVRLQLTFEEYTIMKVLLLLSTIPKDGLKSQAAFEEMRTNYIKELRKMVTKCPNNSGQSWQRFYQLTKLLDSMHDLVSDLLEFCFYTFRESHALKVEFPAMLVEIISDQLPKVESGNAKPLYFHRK
Source text: The activity of the compounds of the present invention regarding mineralocorticoid receptor antagonism can be evaluated using the following assay.
Assessment of MR Potency in HMR NH Pro Assay
The human MR NH Pro assay is a commercially available PathHunter™ Protein:Protein interaction assay (DiscoveRx; http://www.discoverx.com/nhrs/prod-nhrs.php) that measures the ability of compounds to antagonize full-length human Mineralocorticoid Receptor (MR) binding to a coactivator peptide. PathHunter™ CHO-K1 cells that overexpress human MR (Cat #93-0456C2, Lot No: 09B0913) were cultured in growth media (F12K w/Glutamine and phenol red (Gibco 11765-047) supplemented with 10% HI FBS (Gibco 16000); 0.25 mg/ml Hygromycin in PBS (Invitrogen 10687-010, 50 mg/ml); 100 I.U./mL and 100 μg/mL Pen/Strep (Gibco 15140-122); 0.6 mg/mL Geneticin (Gibco 10131-027).
Compounds were assessed for MR antagonist activity by incubating the cells with a titrating dose of compound in F12K w/Glutamine and phenol red culture media (Invitrogen 11765-047) supplemented with 1% Charcoal/Dextran Treated FBS (Hyclone #SH30068.01) and aldosterone (0.3 nM to about 1 nM) for 6 hours at 37° C. Cells were then treated with DiscoveRx detection reagent for 1 hour at room temperature and read using an Envision luminescence plate reader. % activity was measured relative to cells treated with aldosterone alone and IC50 values were calculated using ADA software.
Stock solution was prepared at 10 μM in DMSO and stored at −20° C. for assay, dilute in assay media to 1.8 or 6 nM (6× of final concentration=about 0.3 nM to about 1.0 nM)
5. Cell line: PathHunter CHO-K1 MR cells Cat #93-0456C2, Lot No: 09B0913, from operation liquid nitrogen stock.
3. The cells concentration was adjusted to 4×10^5 cells/mL.
4. Cells were (25 μL/well) added to the wells of a 384 well plate.
5. The plate was then incubated at 37° C. over night in a humidified incubator with 5% CO2.
6. Test compounds were titrated starting at 4.4 mM, 10-point titration in 1:3 dilution.
7. Aldosterone was diluted in assay media to 1.8 nM or 6 nM from 10 μM stock (final concentration to be about 0.3 nM to about 1.0 nM)
1. 10K exponentially growing cells/well (25 μL) were resuspended in assay media and plated into each well using the Multidrop (Thermo Electron) (use white wall, clear bottom assay plates (Costar #3570) and incubated overnight at 37° C., 5% CO2.
2. 0.25 μL 120× test compound (final DMSO concentration should be <1%) was added to each well n=2, 10 point titrations starting at 36.7 μM final concentration.
3. 5 μL of 6× agonist (final aldosterone concentration should be about 0.3 nM to about 1.0 nM) was added to all wells (using the PlateMate Plus; (ThermoFisher) (except those wells in columns 23 and 24)
4. 5 μL of assay media was added to all wells in column 23 and 24.
5. Cells were then incubated for 6 hrs at 37° C., 5% CO2.
6. 15 μL 3× DiscoveRx detection reagent was then added to each well.
7. Plates were incubated for 1 hour at room temperature in the dark.
8. Plates were read on Envision (PerkinElmer) luminesence plate reader and analyzed using ADA.

Row | Compound | IC50
1 | N#CCCC(c1ccc(Cl)cc1F)c1nn(CC#N)c2ccccc12 (stereo not drawn) [Example 17E, 4-(4-chloro-2-fluorophenyl)-4-[1-(cyano-methyl)-1H-indazol-3-yl]-butanenitrile] | 500 to 6000 nM
2 | COCCn1nc(C(CCC#N)c2ccc(Cl)cc2F)c2ccccc21 (stereo not drawn) [Example 17F, 4-(4-chloro-2-fluorophenyl)-4-[1-(2-methoxyethyl)-1H-indazol-3-yl]butanenitrile] | 500 to 6000 nM
3 | CC(C)(C)OC(=O)Cn1nc(C(C)(C)c2ccc(Cl)cc2)c2ccccc21 [Example 18, tert-butyl {3-[1-(4-chlorophenyl)-1-methylethyl]-1H-indazol-1-yl}acetate] | 500 to 6000 nM
4 | CCC(CC)(c1ccc(Cl)cc1)c1nn(CC(=O)OC)c2ccccc12 [Example 19, methyl {3-[1-(4-chlorophenyl)-1-ethylpropyl]-1H-indazol-1-yl}acetate] | 100 to 500 nM
5 | COC(=O)Cn1nc(Cc2ccc(Cl)cc2)c2ccccc21 [Example 20, Methyl [3-(4-chlorobenzyl)-1H-indazol-1yl]acetate] | 500 to 6000 nM
6 | Clc1ccc(Cc2nn(Cc3ccccc3)c3ccccc23)cc1 [Example 21, 3-(4-chlorobenzyl)-1-benzyl-1H-indazole] | 500 to 6000 nM
